Measurements reported in PubChem BioAssay (NCI).
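How tested: cells in 96-well plates exposed to compound for 48 hours at five concentrations. Definition used: TGI = concentration required for complete inhibition of growth.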

Experiments:
Assay in all cases: NCI-60 cell line screen, 48 h
SK-MEL-5 melanoma = test system: SK-MEL-5 melanoma
EKVX NSCLC = test system: EKVX NSCLC
TK-10 renal = test system: TK-10 renal
OVCAR-4 ovarian = test system: OVCAR-4 ovarian
SK-OV-3 ovarian = test system: SK-OV-3 ovarian
DU-145 prostate = test system: DU-145 prostate
SF-295 CNS = test system: SF-295 CNS
SK-MEL-28 melanoma = test system: SK-MEL-28 melanoma
MDA-MB-231 breast = test system: MDA-MB-231 breast
NCI/ADR-RES ovarian = test system: NCI/ADR-RES ovarian
M14 melanoma = test system: M14 melanoma
HCT-15 colon = test system: HCT-15 colon
SF-268 CNS = test system: SF-268 CNS
T-47D breast = test system: T-47D breast
ACHN renal = test system: ACHN renal
SNB-75 CNS = test system: SNB-75 CNS
A549 NSCLC = test system: A549 NSCLC
SK-MEL-2 melanoma = test system: SK-MEL-2 melanoma
UACC-257 melanoma = test system: UACC-257 melanoma
SW-620 colon = test system: SW-620 colon
U251 CNS = test system: U251 CNS
SF-539 CNS = test system: SF-539 CNS
MOLT-4 leukemia = test system: MOLT-4 leukemia
SNB-19 CNS = test system: SNB-19 CNS
PC-3 prostate = test system: PC-3 prostate
HOP-62 NSCLC = test system: HOP-62 NSCLC
SN12C renal = test system: SN12C renal
OVCAR-3 ovarian = test system: OVCAR-3 ovarian
K-562 leukemia = test system: K-562 leukemia
RXF 393 renal = test system: RXF 393 renal
NCI-H23 lung = test system: NCI-H23 lung
KM12 colon = test system: KM12 colon
COLO 205 colon = test system: COLO 205 colon
LOX IMVI melanoma = test system: LOX IMVI melanoma
UACC-62 melanoma = test system: UACC-62 melanoma
MDA-MB-435 = test system: MDA-MB-435
UO-31 renal = test system: UO-31 renal
SR leukemia = test system: SR leukemia
HS 578T breast = test system: HS 578T breast
HOP-92 NSCLC = test system: HOP-92 NSCLC
CAKI-1 renal = test system: CAKI-1 renal
A498 renal = test system: A498 renal
CCRF-CEM leukemia = test system: CCRF-CEM leukemia
IGROV1 ovarian = test system: IGROV1 ovarian
MDA-N = test system: MDA-N
HCC-2998 colon = test system: HCC-2998 colon
RPMI-8226 leukemia = test system: RPMI-8226 leukemia
786-0 renal = test system: 786-0 renal
HCT-116 colon = test system: HCT-116 colon
NCI-H460 lung = test system: NCI-H460 lung
MALME-3M melanoma = test system: MALME-3M melanoma
OVCAR-8 ovarian = test system: OVCAR-8 ovarian
HL-60(TB) leukemia = test system: HL-60(TB) leukemia
NCI-H226 lung = test system: NCI-H226 lung
HT29 colon = test system: HT29 colon
MCF7 breast = test system: MCF7 breast
NCI-H522 lung = test system: NCI-H522 lung
BT-549 breast = test system: BT-549 breast

Measured: TGI

CC(C)(C)OC(=O)N1CCc2c(n(C/C=C/c3ccccc3)[nH]c2=O)C1
> 100 µM: all assays above
